Key:
[1] = molecular target: P2X7 (Homo sapiens (Human), UniProt Q99572); assay: P2X7 antagonism in human PBMCs (LPS + Bz-ATP induced IL-1β release, ELISA); type: cell-based; conditions: LPS 30 ng/ml, Bz-ATP 0.5 mM; for PBMC 1 μM (% control): compound 1 μM; for PBMC 10 μM (% control): compound 10 μM;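 on all read-outs here: PBMCs from donor human blood, with a further 1.5 h incubation of the cells in the assay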
[2] = molecular target: rat P2X7 (Rattus norvegicus (Rat), UniProt Q64663); assay: Ca2+ flux (FLIPR) in 1321N1 cells expressing recombinant rat P2X7 channel; type: cell-based; conditions: 250 μM BzATP;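 further: Calcium-4 dye fluorescence change read 180 s after agonist addition, following 30 min cell preincubation with test compound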
Chain of rat P2X7 (Q64663 whole entry): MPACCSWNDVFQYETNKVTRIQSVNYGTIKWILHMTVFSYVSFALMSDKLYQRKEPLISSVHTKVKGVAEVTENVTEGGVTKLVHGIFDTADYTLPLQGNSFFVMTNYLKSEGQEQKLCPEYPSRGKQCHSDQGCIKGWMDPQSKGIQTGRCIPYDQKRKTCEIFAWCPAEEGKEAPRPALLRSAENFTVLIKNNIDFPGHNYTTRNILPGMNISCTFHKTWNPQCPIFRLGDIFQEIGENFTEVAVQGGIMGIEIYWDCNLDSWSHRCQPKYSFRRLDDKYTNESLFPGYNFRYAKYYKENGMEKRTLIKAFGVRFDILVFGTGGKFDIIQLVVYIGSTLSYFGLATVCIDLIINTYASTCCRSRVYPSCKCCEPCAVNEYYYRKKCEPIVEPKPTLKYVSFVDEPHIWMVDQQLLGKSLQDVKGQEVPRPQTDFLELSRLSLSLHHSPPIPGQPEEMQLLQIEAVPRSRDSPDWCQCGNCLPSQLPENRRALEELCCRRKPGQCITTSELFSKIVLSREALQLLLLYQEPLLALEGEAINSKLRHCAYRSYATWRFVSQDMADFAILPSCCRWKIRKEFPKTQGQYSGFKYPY
Procedure: Cells were seeded at a density of 25000 cells/well (96-well clear bottom black walled plates) in 100 μl volume/well. On the day of the experiment, cell plates were washed with assay buffer, containing (in mM): 130 NaCl, 2 KCl, 1 CaCl2, 1 MgCl2, 10 HEPES, 5 glucose; pH 7.40 and 300 mOs. After the wash, cells were loaded with the Calcium-4 dye (Molecular Device) and incubated in the dark for 60 minutes. Test compounds were prepared at 250× the test concentration in neat DMSO. Intermediate 96-well compound plates were prepared by transferring 1.2 μL of the compound into 300 μL of assay buffer. A further 3× dilution occurred when transferring 50 μL/well of the compound plate to 100 μL/well in the cell plate. Cells were incubated with test compounds and dye for 30 minutes. […] The fluorescence change was measured 180 seconds after adding the agonist.

Chain of P2X7 (Q99572 whole entry): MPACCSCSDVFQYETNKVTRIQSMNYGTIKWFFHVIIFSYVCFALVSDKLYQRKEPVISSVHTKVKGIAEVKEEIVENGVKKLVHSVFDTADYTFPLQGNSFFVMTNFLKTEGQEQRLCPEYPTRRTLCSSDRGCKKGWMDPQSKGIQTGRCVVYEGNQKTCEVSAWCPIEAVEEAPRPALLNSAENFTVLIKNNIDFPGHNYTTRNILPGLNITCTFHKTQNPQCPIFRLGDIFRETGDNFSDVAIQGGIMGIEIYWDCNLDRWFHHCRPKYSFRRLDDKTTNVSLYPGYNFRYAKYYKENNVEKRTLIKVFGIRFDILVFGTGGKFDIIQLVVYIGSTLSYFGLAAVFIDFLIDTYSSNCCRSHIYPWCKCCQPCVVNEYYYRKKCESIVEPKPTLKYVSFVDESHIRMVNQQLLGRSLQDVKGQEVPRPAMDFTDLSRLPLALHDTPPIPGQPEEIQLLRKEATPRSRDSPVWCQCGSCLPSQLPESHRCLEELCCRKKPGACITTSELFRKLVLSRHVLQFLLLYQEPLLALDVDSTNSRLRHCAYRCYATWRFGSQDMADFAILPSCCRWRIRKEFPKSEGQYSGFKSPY

PBMC 1 μM (% control) [1] | IC50 [2] | PBMC 10 μM (% control) [1] | Compound
12.6 % control | 1090 nM |  | O=C(c1cccc(C(F)(F)F)c1Cl)N1CCc2c(nnn2-c2ccccn2)C1 [Example 63, 5-{[2-Chloro-3-(trifluoromethyl)phenyl]carbonyl}-1-pyridin-2-yl-4,5,6,7-tetrahydro-1H-[1,2,3]triazolo[4,5-c]pyridine]
 | 19.7 nM | 0.9 % control | Cc1nc(-n2nnc3c2CCN(C(=O)c2cccc(C(F)(F)F)c2Cl)[C@@H]3C)ncc1F (single isomer, unassigned) [Example 305, (R*)-(2-chloro-3-(trifluoromethyl)phenyl)(1-(5-fluoro-4-methylpyrimidin-2-yl)-4-methyl-6,7-dihydro-1H-[1,2,3]triazolo[4,5-c]pyridin-5(4H)-yl)methanone]
 | 55.6 nM | −3.8 % control | CC1Cc2c(nnn2-c2ccccn2)CN1C(=O)c1cccc(Cl)c1Cl (stereo not shown) [Example 120, 5-[(2,3-Dichlorophenyl)carbonyl]-6-methyl-1-pyridin-2-yl-4,5,6,7-tetrahydro-1H-[1,2,3]triazolo[4,5-c]pyridine]
 | 2620 nM | −3.1 % control | C[C@H]1Cc2c(nnn2-c2cc(F)ccn2)CN1C(=O)c1cccc(Cl)c1Cl (single isomer, unassigned) [Example 196, (6S*)-5-[(2,3-Dichlorophenyl)carbonyl]-1-(4-fluoropyridin-2-yl)-6-methyl-4,5,6,7-tetrahydro-1H-[1,2,3]triazolo[4,5-c]pyridine]
 | 20.6 nM | 16.3 % control | Cc1ccnc(-n2nnc3c2CCN(C(=O)c2cccc(C(F)(F)F)c2F)C3C)n1 (stereo not shown) [Example 269, (2-fluoro-3-(trifluoromethyl)phenyl)(4-methyl-1-(4-methylpyrimidin-2-yl)-6,7-dihydro-1H-[1,2,3]triazolo[4,5-c]pyridin-5(4H)-yl)methanone]
 | 2.8 nM | −8.1 % control | CCc1ccnc(-n2nnc3c2CCN(C(=O)c2cccc(C(F)(F)F)c2Cl)[C@@H]3C)n1 (single isomer, unassigned) [Example 294, (R*)-(2-chloro-3-(trifluoromethyl)phenyl)(1-(4-ethylpyrimidin-2-yl)-4-methyl-6,7-dihydro-1H-[1,2,3]triazolo[4,5-c]pyridin-5(4H)-yl)methanone]
1.6 % control | 32.4 nM |  | O=C(c1cccc(C(F)(F)F)c1Cl)N1C=Cc2c(nnn2-c2cnccn2)C1c1ccccc1 (stereo not shown) [Example 76, 5-{[2-Chloro-3-(trifluoromethyl)phenyl]carbonyl}-4-phenyl-1-pyrazin-2-yl-4,5-dihydro-1H-[1,2,3]triazolo[4,5-c]pyridine]
 | 1300 nM | 5.2 % control | C[C@H]1c2ncn(-c3ccccn3)c2CCN1C(=O)c1cccc(Cl)c1Cl (single isomer, unassigned) [Example 191, (S*)-(2,3-Dichlorophenyl)(4-methyl-1-(pyridin-2-yl)-6,7-dihydro-1H-imidazo[4,5-c]pyridin-5(4H)-yl)methanone]
 | 211 nM | −5.5 % control | Cc1ccc(-n2nnc3c2CCN(C(=O)c2cccc(C(F)(F)F)c2Cl)[C@@H]3C)nc1 (single isomer, unassigned) [Example 255, (R*)-(2-chloro-3-(trifluoromethyl)phenyl)(4-methyl-1-(5-methylpyridin-2-yl)-6,7-dihydro-1H-[1,2,3]triazolo[4,5-c]pyridin-5(4H)-yl)methanone]
 | 428 nM | −11.3 % control | CCCOc1cccnc1-n1nnc2c1CCN(C(=O)c1cccc(C(F)(F)F)c1Cl)C2C (stereo not shown) [Example 293, (2-chloro-3-(trifluoromethyl)phenyl)(4-methyl-1-(3-propoxypyridin-2-yl)-6,7-dihydro-1H-[1,2,3]triazolo[4,5-c]pyridin-5(4H)-yl)methanone]
 | 163 nM | −2.2 % control | Cc1ccc(-n2nnc3c2CCN(C(=O)c2cccc(C(F)(F)F)c2Cl)C3C)nc1 (stereo not shown) [Example 301, (2-chloro-3-(trifluoromethyl)phenyl)(4-methyl-1-(5-methylpyridin-2-yl)-6,7-dihydro-1H-[1,2,3]triazolo[4,5-c]pyridin-5(4H)-yl)methanone]
 | > 10000 nM | 7.5 % control | C[C@H]1Cc2c(nnn2-c2ncc(F)cn2)CN1C(=O)c1cc(C(F)(F)F)ccc1F (single isomer, unassigned) [Example 232, (S*)-(2-fluoro-5-(trifluoromethyl)phenyl)(1-(5-fluoropyrimidin-2-yl)-6-methyl-6,7-dihydro-1H-[1,2,3]triazolo[4,5-c]pyridin-5(4H)-yl)methanone]
12.8 % control | 141 nM |  | CC1c2ncn(-c3cnccn3)c2CCN1C(=O)c1cccc(C(F)(F)F)c1F (stereo not shown) [Example 14, (2-Fluoro-3-(trifluoromethyl)phenyl)(4-methyl-1-(pyrazin-2-yl)-6,7-dihydro-1H-imidazo[4,5-c]pyridin-5(4H)-yl)methanone]
 | 4840 nM | −3.2 % control | CCOc1cccnc1-n1nnc2c1CCN(C(=O)c1cccc(C(F)(F)F)c1Cl)C2C (stereo not shown) [Example 258, (2-Chloro-3-(trifluoromethyl)phenyl)(1-(3-ethoxypyridin-2-yl)-4-methyl-6,7-dihydro-1H-[1,2,3]triazolo[4,5-c]pyridin-5(4H)-yl)methanone]
 | 65.5 nM | 1.9 % control | O=C(c1cccc(C(F)(F)F)c1Cl)N1CCc2c(ncn2-c2ccccn2)C1CF (stereo not shown) [Example 32, (2-Chloro-3-(trifluoromethyl)phenyl)(4-(fluoromethyl)-1-(pyridin-2-yl)-6,7-dihydro-1H-imidazo[4,5-c]pyridin-5(4H)-yl)methanone]
 | 10.2 nM | 8.8 % control | CC1Cc2c(nnn2-c2cc(F)ccn2)CN1C(=O)c1cccc(Cl)c1Cl (stereo not shown) [Example 173, 5-[(2,3-Dichlorophenyl)carbonyl]-1-(4-fluoropyridin-2-yl)-6-methyl-4,5,6,7-tetrahydro-1H-[1,2,3]triazolo[4,5-c]pyridine]
 | > 10000 nM | 6.5 % control | CC1CN(C(=O)c2cccc(C(F)(F)F)c2Cl)C(C)c2nnn(-c3ccccc3)c21 (stereo not shown) [Example 241, (2-Chloro-3-(trifluoromethyl)phenyl)(4,7-dimethyl-1-phenyl-6,7-dihydro-1H-[1,2,3]triazolo[4,5-c]pyridin-5(4H)-yl)methanone]
 | 10000 nM | −6.3 % control | C[C@@H]1c2ncn(-c3ccccn3)c2CCN1C(=O)c1cccc(Cl)c1Cl (single isomer, unassigned) [Example 192, (R*)-(2,3-Dichlorophenyl)(4-methyl-1-(pyridin-2-yl)-6,7-dihydro-1H-imidazo[4,5-c]pyridin-5(4H)-yl)methanone]
 | 4260 nM | 0.9 % control | CCc1cccnc1-n1nnc2c1CCN(C(=O)c1cccc(C(F)(F)F)c1Cl)C2C (stereo not shown) [Example 254, (2-Chloro-3-(trifluoromethyl)phenyl)(1-(3-ethylpyridin-2-yl)-4-methyl-6,7-dihydro-1H-[1,2,3]triazolo[4,5-c]pyridin-5(4H)-yl)methanone]
 | 187 nM | 8.5 % control | CC1c2nnn(-c3ncccc3F)c2CCN1C(=O)c1cccc(C(F)(F)F)c1Cl (stereo not shown) [Example 84, 5-{[2-Chloro-3-(trifluoromethyl)phenyl]carbonyl}-1-(3-fluoropyridin-2-yl)-4-methyl-4,5,6,7-tetrahydro-1H-[1,2,3]triazolo[4,5-c]pyridine]
 | > 10000 nM | −4.3 % control | Cc1cc(C)nc(-n2nnc3c2CCN(C(=O)c2cccc(Cl)c2Cl)C3C)n1 (stereo not shown) [Example 179, (2,3-dichlorophenyl)(1-(4,6-dimethylpyrimidin-2-yl)-4-methyl-6,7-dihydro-1H-[1,2,3]triazolo[4,5-c]pyridin-5(4H)-yl)methanone]
39.2 % control | 1890 nM |  | CCOC(=O)C1c2ncn(-c3ccccc3)c2CCN1C(=O)c1cccc(Cl)c1Cl (stereo not shown) [Example 27, Ethyl 5-(2,3-dichlorobenzoyl)-1-phenyl-4,5,6,7-tetrahydro-1H-imidazo[4,5-c]pyridine-4-carboxylate]
 | > 10000 nM | 4.8 % control | CCOc1cccnc1-n1nnc2c1CCN(C(=O)c1cccc(C(F)(F)F)c1Cl)[C@H]2C (single isomer, unassigned) [Example 317, (S*)-(2-chloro-3-(trifluoromethyl)phenyl)(1-(3-ethoxypyridin-2-yl)-4-methyl-6,7-dihydro-1H-[1,2,3]triazolo[4,5-c]pyridin-5(4H)-yl)methanone]
 | 1920 nM | −3.7 % control | O=C(c1ccc(Cl)cc1Cl)N1CCc2c(nnn2-c2cnccn2)C1 [Example 277, (2,4-dichlorophenyl)(1-(pyrazin-2-yl)-6,7-dihydro-1H-[1,2,3]triazolo[4,5-c]pyridin-5(4H)-yl)methanone]

Compound | PBMC 1 μM (% control) [1] | IC50 [2] | PBMC 10 μM (% control) [1]
CC1c2ncn(-c3ccc(F)cn3)c2C=CN1C(=O)c1cccc(C(F)(F)F)c1Cl (stereo not shown) [Example 321, (2-chloro-3-(trifluoromethyl)phenyl)(1-(5-fluoropyridin-2-yl)-4-methyl-1H-imidazo[4,5-c]pyridin-5(4H)-yl)methanone] |  | 589 nM | 14.1 % control
Cc1cc(C)nc(-n2nnc3c2CCN(C(=O)c2cccc(C(F)(F)F)c2Cl)[C@@H]3C)n1 (single isomer, unassigned) [Example 181, (R*)-(2-chloro-3-(trifluoromethyl)phenyl)(1-(4,6-dimethylpyrimidin-2-yl)-4-methyl-6,7-dihydro-1H-[1,2,3]triazolo[4,5-c]pyridin-5(4H)-yl)methanone] |  | > 10000 nM | −0.1 % control

Reference: patent US9464084B2, “P2X7 modulators” (Janssen Pharmaceutica NV, priority 2013, dated 2016)
